One experiment has as its target hNav1.4 (Homo sapiens, UniProt P35499). The experiment can be described thus: cell-based. The format is cell-based. The note with it: Table 12; ratio of PX tonic IC50 values.
The target in a further experiment is hNav1.5 (Homo sapiens, UniProt Q14524). As to the kind of experiment: cell-based. The note with it: Table 12; ratio of PX tonic IC50 values.
Chain of hNav1.5 (Q14524 whole entry): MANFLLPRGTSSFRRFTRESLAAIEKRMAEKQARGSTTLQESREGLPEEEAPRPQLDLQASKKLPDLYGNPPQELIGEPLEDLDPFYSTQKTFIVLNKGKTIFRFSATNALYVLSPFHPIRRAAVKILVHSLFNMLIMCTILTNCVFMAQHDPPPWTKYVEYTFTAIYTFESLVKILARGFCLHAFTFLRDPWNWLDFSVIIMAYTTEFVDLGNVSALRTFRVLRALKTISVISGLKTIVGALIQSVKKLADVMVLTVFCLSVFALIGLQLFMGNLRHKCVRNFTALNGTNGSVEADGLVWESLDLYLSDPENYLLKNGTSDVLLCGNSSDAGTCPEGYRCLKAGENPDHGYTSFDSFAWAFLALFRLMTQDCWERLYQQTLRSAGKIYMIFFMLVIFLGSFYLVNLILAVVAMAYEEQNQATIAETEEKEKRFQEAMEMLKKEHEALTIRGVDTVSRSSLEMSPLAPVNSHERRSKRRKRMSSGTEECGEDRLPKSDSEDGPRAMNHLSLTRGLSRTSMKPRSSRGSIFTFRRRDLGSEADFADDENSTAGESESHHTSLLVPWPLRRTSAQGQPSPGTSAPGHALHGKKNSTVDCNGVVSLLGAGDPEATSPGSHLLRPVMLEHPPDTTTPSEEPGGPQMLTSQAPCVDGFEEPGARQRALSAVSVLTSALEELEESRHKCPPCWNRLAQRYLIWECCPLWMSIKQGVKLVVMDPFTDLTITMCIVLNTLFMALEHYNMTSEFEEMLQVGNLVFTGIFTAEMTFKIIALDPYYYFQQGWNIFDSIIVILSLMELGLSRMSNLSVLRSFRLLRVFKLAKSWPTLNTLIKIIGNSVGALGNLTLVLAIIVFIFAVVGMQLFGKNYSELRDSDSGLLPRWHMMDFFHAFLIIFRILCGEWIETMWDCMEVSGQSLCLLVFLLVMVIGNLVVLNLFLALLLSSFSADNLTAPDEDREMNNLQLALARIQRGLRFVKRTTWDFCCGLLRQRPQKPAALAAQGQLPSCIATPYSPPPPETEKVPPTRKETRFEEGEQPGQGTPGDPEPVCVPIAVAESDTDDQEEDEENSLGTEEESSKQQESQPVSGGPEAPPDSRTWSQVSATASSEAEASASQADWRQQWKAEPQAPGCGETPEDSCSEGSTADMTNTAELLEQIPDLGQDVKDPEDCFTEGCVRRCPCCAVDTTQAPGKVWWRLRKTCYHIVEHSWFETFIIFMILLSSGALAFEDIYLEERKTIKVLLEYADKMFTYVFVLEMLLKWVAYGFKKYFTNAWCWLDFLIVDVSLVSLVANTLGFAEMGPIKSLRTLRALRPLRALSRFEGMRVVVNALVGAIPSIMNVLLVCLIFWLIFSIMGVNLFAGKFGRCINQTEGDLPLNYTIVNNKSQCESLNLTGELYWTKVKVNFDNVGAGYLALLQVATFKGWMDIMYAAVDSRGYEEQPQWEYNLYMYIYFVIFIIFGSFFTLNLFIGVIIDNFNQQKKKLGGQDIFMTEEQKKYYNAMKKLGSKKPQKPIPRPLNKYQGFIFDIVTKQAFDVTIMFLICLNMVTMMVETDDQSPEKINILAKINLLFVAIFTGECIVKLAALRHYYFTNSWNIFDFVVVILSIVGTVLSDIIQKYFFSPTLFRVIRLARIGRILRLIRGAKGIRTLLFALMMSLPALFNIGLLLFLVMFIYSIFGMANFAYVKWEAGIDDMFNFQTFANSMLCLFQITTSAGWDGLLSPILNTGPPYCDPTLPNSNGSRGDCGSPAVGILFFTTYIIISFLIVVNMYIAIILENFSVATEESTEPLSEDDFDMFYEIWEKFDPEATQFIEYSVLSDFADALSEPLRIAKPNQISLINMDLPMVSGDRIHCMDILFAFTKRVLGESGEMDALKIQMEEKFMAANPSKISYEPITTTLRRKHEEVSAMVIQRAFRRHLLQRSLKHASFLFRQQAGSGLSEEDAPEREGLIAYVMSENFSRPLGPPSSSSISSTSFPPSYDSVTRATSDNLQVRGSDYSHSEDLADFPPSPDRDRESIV

Chain of hNav1.4 (P35499 whole entry): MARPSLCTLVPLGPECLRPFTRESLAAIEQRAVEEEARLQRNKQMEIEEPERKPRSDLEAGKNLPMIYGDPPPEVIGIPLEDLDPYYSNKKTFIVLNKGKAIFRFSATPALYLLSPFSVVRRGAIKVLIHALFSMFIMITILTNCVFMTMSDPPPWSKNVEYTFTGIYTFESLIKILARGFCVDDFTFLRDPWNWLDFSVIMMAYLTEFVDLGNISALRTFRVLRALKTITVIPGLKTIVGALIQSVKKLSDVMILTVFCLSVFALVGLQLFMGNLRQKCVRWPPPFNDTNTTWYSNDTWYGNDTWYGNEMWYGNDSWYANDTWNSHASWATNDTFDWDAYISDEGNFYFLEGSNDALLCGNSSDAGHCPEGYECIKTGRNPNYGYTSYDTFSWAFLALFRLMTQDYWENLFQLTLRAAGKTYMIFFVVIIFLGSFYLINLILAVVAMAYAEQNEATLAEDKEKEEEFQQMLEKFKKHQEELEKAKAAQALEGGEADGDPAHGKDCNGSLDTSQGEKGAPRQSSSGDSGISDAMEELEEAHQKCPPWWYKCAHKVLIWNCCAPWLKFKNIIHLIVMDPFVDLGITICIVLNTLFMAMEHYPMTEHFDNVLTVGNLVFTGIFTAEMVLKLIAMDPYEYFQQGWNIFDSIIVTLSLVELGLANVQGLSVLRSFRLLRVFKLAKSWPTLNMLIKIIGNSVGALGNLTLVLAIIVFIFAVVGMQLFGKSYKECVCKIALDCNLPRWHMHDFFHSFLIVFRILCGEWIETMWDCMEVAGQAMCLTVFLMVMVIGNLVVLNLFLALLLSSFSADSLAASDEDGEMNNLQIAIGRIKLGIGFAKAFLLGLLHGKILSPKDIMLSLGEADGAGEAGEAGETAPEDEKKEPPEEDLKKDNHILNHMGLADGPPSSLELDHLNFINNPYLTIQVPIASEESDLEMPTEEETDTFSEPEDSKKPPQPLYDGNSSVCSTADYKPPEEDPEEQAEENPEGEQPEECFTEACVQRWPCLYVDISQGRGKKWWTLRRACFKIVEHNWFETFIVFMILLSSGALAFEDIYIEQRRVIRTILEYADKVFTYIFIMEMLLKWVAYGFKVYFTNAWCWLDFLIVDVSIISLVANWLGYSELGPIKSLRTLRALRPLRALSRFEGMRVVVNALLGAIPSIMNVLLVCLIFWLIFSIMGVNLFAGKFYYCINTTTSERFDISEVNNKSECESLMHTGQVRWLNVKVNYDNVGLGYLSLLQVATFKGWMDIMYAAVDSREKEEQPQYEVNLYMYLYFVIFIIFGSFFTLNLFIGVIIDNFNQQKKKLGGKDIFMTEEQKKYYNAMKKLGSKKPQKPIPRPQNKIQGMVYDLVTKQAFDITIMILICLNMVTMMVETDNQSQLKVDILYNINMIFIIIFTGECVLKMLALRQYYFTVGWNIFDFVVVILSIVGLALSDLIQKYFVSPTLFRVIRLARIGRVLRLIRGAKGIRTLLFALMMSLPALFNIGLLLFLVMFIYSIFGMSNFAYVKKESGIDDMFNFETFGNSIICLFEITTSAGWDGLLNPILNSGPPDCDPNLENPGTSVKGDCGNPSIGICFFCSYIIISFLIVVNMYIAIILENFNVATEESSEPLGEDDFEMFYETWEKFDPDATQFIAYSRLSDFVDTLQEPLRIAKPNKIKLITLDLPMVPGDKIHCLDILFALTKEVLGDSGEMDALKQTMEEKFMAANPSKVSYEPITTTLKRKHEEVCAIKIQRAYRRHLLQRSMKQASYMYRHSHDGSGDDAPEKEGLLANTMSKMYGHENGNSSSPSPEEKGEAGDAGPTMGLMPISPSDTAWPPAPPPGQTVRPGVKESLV

In the case of `C#CC[C@H](N)C(=O)N[C@@H](Cc1ccc(O)cc1)C(=O)N[C@H]1CSSC[C@@H]2NC(=O)[C@@H]3CSSC[C@@H](C(=O)N[C@@H](CCCNC(=N)N)C(=O)N[C@@H](CCCCN)C(=O)N[C@@H](Cc4ccc(O)cc4)C(=O)N[C@H](C(N)=O)[C@@H](C)CC)NC(=O)[C@H](Cc4c[nH]c5ccccc45)NC(=O)[C@H](CC(C)C)NC(=O)[C@H](CCCCN)NC(=O)[C@H](CSSC[C@H](NC(=O)[C@H]([C@@H](C)O)NC(=O)[C@H](Cc4c[nH]c5ccccc45)NC(=O)[C@H](CCCC)NC(=O)[C@H](Cc4c[nH]c5ccccc45)NC(=O)[C@H](CCCCN)NC(=O)[C@H](CCC(N)=O)NC1=O)C(=O)N[C@@H](CC(=O)O)C(=O)N[C@@H](CO)C(=O)N[C@@H](CCCCN)C(=O)N[C@@H](CCCNC(=N)N)C(=O)N[C@@H](C)C(=O)N3)NC(=O)[C@H](CCC(=O)O)NC(=O)[C@H](CC(C)C)NC(=O)CNC(=O)[C@H](CCC(=O)O)NC2=O` [compound 313], the Nav1.4/Nav1.7 at hNav1.4 is reported as 2261. Besides, on hNav1.5, the Nav1.5/Nav1.7 came out at 10226.

Regarding `C#CC[C@@H]1NC(=O)[C@H](CC(=O)O)NC(=O)[C@@H]2CSSC[C@@H]3NC(=O)[C@H](CCC(=O)O)NC(=O)[C@H](CC(C)C)NC(=O)CNC(=O)[C@H](CCC(=O)O)NC(=O)[C@H](CSSC[C@H](NC(=O)[C@@H](N)Cc4ccc(O)cc4)C(=O)N[C@@H](CCC(N)=O)C(=O)N[C@@H](CCCCN)C(=O)N[C@@H](Cc4c[nH]c5ccccc45)C(=O)N[C@@H](CCCC)C(=O)N[C@@H](Cc4c[nH]c5ccccc45)C(=O)N[C@@H]([C@@H](C)O)C(=O)N2)NC(=O)[C@H](CSSC[C@@H](C(=O)N[C@@H](CCCNC(=N)N)C(=O)N[C@@H](CCCCN)C(=O)N[C@@H](Cc2ccc(O)cc2)C(=O)N[C@H](C(N)=O)[C@@H](C)CC)NC(=O)[C@H](Cc2c[nH]c4ccccc24)NC(=O)[C@H](CC(C)C)NC(=O)[C@H](CCCCN)NC3=O)NC(=O)[C@H](C)NC(=O)[C@H](CCCNC(=N)N)NC(=O)[C@H](CCCCN)NC1=O` [compound 315], the Nav1.4/Nav1.7 on hNav1.4 was determined as 643. For the same molecule, the Nav1.5/Nav1.7 on hNav1.5 was found to be 1914.

Take `C#CC[C@H](N)C(=O)NCCOCCOCCOCCOCCC(=O)NCCCC[C@@H]1NC(=O)[C@H](CCCNC(=N)N)NC(=O)[C@H](CCCCN)NC(=O)[C@H](CO)NC(=O)[C@H](CC(=O)O)NC(=O)[C@@H]2CSSC[C@@H]3NC(=O)[C@H](CCC(=O)O)NC(=O)[C@H](CC(C)C)NC(=O)CNC(=O)[C@H](CCC(=O)O)NC(=O)[C@H](CSSC[C@H](NC(=O)[C@@H](N)Cc4ccc(O)cc4)C(=O)N[C@@H](CCC(N)=O)C(=O)N[C@@H](CCCCN)C(=O)N[C@@H](Cc4c[nH]c5ccccc45)C(=O)N[C@@H](CCCC)C(=O)N[C@@H](Cc4c[nH]c5ccccc45)C(=O)N[C@@H]([C@@H](C)O)C(=O)N2)NC(=O)[C@H](CSSC[C@@H](C(=O)N[C@@H](CCCNC(=N)N)C(=O)N[C@@H](CCCCN)C(=O)N[C@H](C(=O)N[C@@H](Cc2c[nH]c4ccccc24)C(N)=O)[C@@H](C)CC)NC(=O)[C@H](Cc2c[nH]c4ccccc24)NC(=O)[C@H](CC(C)C)NC(=O)[C@H](CCCCN)NC3=O)NC1=O` [compound 291]: at hNav1.4, the Nav1.4/Nav1.7 turned out to be 38. Moreover, the Nav1.5/Nav1.7 at hNav1.5 came to 100.

With `C#CC[C@H](N)C(=O)N[C@H]1CSSC[C@@H]2NC(=O)[C@@H]3CSSC[C@@H](C(=O)N[C@@H](CCCNC(=N)N)C(=O)N[C@@H](CCCCN)C(=O)N[C@H](C(=O)N[C@H](C(N)=O)[C@@H](C)CC)[C@@H](C)CC)NC(=O)[C@H](Cc4c[nH]c5ccccc45)NC(=O)[C@H](CC(C)C)NC(=O)[C@H](CCCCN)NC(=O)[C@H](CSSC[C@H](NC(=O)[C@H]([C@@H](C)O)NC(=O)[C@H](Cc4c[nH]c5ccccc45)NC(=O)[C@H](CCCC)NC(=O)[C@H](Cc4c[nH]c5ccccc45)NC(=O)[C@H](CCCCN)NC(=O)[C@H](CCC(N)=O)NC1=O)C(=O)N[C@@H](CC(=O)O)C(=O)N[C@@H](CO)C(=O)N[C@@H](CCCCN)C(=O)N[C@@H](CCCNC(=N)N)C(=O)N[C@@H](C)C(=O)N3)NC(=O)[C@H](CCC(=O)O)NC(=O)[C@H](CC(C)C)NC(=O)CNC(=O)[C@H](CCC(=O)O)NC2=O` [compound 343], the Nav1.4/Nav1.7 at hNav1.4 is on record as 300. Moreover, the Nav1.5/Nav1.7 on hNav1.5 stood at 1011.

Source of the values: US10344060B2 (priority 2013, dated 2019).
